IC50 data for 54 molecules are collected here from patent US10774051B2, “6-membered heterocyclic derivatives and pharmaceutical composition comprising the same” (Shionogi & Co., Ltd., priority 2015, dated 2020).

Molecules are shown by their SMILES. Some results are limits rather than exact numbers.

The target of one assay is human P2X7 receptor (Homo sapiens, UniProt Q99572, R270H/Y155H). The assay is described as follows: Evaluation of human P2X7 receptor inhibitory activity (Yo-Pro uptake, BzATP stimulation, FLIPR TETRA). The note with it: 1321N1 cells stably expressing human P2X7 receptor; BzATP stimulation, Yo-Pro uptake; read-out: IC50 (antagonistic activity for the human P2X7 receptor). Type of assay: cell-based. In a few lines:
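Yo-Pro dye uptake triggered by BzATP was monitored by FLIPR in human P2X7-transfected 1321N1 cells (SNP variant) in HEPES-buffered HBSS, pH 7.4-7.5. Compound was dispensed 8 min post-stimulation, then signal read for 20 min; IC50 derived logistically from inhibition of the fluorescence range.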
Turning to `Cc1nc2cc(C)c(Nc3nc(=O)c(C)nn3Cc3cc(F)c(F)c(F)c3)cc2s1` [Compound I-1267], the IC50 is 10 nM.

Consider `COc1cn(Cc2ccc(F)c(Cl)c2)c(Nc2cc3cc[nH]c3cc2C)nc1=O` [Compound I-0941], for which the IC50 amounted to 12 nM.

On to `COc1cn(Cc2ccccc2)c(NCc2cccc(Cl)c2C)nc1=O` [Compound I-0121], for which the IC50 stood at 280 nM. Same read-out and setting: next, `COc1cn(Cc2cc(F)cc(F)c2)c(Nc2c(C)ccc(C)c2F)nc1=O` [Compound I-0928]: 10 nM; `COc1cn(Cc2ccc(F)c(Cl)c2)c(Nc2cc(C)c(C)cc2C)nc1=O` [Compound I-0358]: 160 nM. Same read-out and setting: next, `COc1cn(Cc2cc(F)cc(Cl)c2)c(Nc2cc(Cl)cc3[nH]ccc23)nc1=O` [Compound I-0821]: 5 nM; `Cc1c(Cl)cccc1Nc1nc(=O)c(OCc2ccccc2)cn1Cc1ccccc1` [Compound I-0149]: 26 nM. Still for that read-out and setting: in the case of `COc1cn(Cc2cc(F)cc(F)c2)c(Nc2cccc3c(=O)[nH]ccc23)nc1=O` [Compound I-0652] it was 34 nM.

Still in this assay, the particulars now being: 1321N1 cells stably expressing human P2X7 receptor; BzATP stimulation, Yo-Pro uptake; read-out: IC50 (antagonistic activity for the human P2X7 receptor), class symbol.
`COc1cn(Cc2cccc(F)c2F)c(Nc2cccc(Cl)c2C)nc1=O` [Compound I-0286]: the IC50 lay within 10 to 100 nM. The same measure, in the same setting: next, `COc1cn(Cc2cccc(Cl)c2)c(Nc2cc3c(cc2C)OCCO3)nc1=O` [Compound I-0290]: 10 to 100 nM; `COc1cn(Cc2cccc(Cl)c2)c(Nc2cc(-c3nnco3)ccc2C)nc1=O` [Compound I-0444]: 10 to 100 nM; `COc1cn(Cc2cccc(F)c2)c(Nc2cc(C)c(OC(F)F)cc2C)nc1=O` [Compound I-0300]: below 10 nM. On the same count and under the same terms, next, `COc1cc(C)cc(Nc2nc(=O)c(OC)cn2Cc2cccc(Cl)c2)c1C` [Compound I-0428]: below 10 nM; `CCOC(=O)Cc1cn(Cc2ccccc2)c(Nc2cccc(Cl)c2C)nc1=O` [Compound I-0023]: 100 to 500 nM.

For the molecule `CCc1cc(OC)c(OC)cc1Nc1nc(=O)c(OC)cn1Cc1cccc(Cl)c1` [Compound I-0271], the IC50 is below 10 nM. Same read-out and setting: in the case of `COc1cc(C)c(Nc2nc(=O)c(OC)cn2Cc2cccc(Cl)c2)cc1OC` [Compound I-0208] it was below 10 nM; in that of `COc1cn(Cc2cc(F)cc(Cl)c2)c(Nc2cc3[nH]ncc3cc2C)nc1=O` [Compound I-0580], 10 to 100 nM; in that of `COc1cn(Cc2ccc(F)c(F)c2)c(Nc2cccc(Cl)c2C)nc1=O` [Compound I-0222], below 10 nM. On to `COc1cn(Cc2ccc(F)c(Cl)c2)c(Nc2cc3[nH]ncc3cc2C)nc1=O` [Compound I-0492], for which the IC50 is below 10 nM.

In the case of `CCc1ccccc1CNc1nc(=O)c(OC)cn1Cc1ccccc1` [Compound I-0114], the IC50 was in the range of 100 to 500 nM. On the same count and under the same terms, next, `COc1cc(C)cc(Nc2nc(=O)c(OC)cn2Cc2ccc(F)c(Cl)c2)c1C` [Compound I-0477]: below 10 nM.

Take `COc1cccc(Nc2nc(=O)c(OC)cn2Cc2cc(F)cc(F)c2)c1C` [Compound I-0438]: the IC50 was below 10 nM. `Cc1c(Cl)cccc1Nc1nc(=O)c(C(=O)N(C)C)cn1Cc1ccccc1` [Compound I-0100]: the IC50 was 100 to 500 nM. With `CCc1ccccc1Nc1nc(=O)c(F)cn1Cc1cccc(Cl)c1` [Compound I-0223], the IC50 lay in the range of 10 to 100 nM. `COc1cn(Cc2ccccc2)c(Nc2cc(C)c(F)cc2C)nc1=O` [Compound I-0433]: the IC50 is below 10 nM.

With `COc1cn(Cc2ccccc2)c(Nc2cc(CO)c(C)cc2C)nc1=O` [Compound I-0278], the half-inhibitory concentration (IC50) is below 10 nM.

As for `CCc1c(Nc2nc(=O)c(F)cn2Cc2ccc(F)cc2)cc(OC)cc1OC` [Compound I-0314], the IC50 was below 10 nM. On the same count and under the same terms, next, `COc1cn(Cc2ccc(F)c(F)c2)c(Nc2cc(-c3nnco3)ccc2C)nc1=O` [Compound I-0523]: 10 to 100 nM.

The same assay, now with this note: antagonistic activity for the human P2X7 receptor; read-out: IC50.
On to `Cc1nc2cc(C)c(Nc3nc(=O)c(CCO)cn3Cc3cc(F)c(F)c(F)c3)cc2s1` [Compound I-1088], for which the IC50 lay within 10 to 100 nM. For `Cc1cc(C)c(Nc2nc(=O)c(Br)cn2Cc2cc(F)cc(F)c2)cc1C` [Compound I-1113], the IC50 was below 10 nM. On the same count and under the same terms, next, `COc1ccc(Nc2nc(=O)c(C(=O)O)cn2Cc2cc(F)c(F)c(F)c2)c(C)c1` [Compound I-1099]: 10 to 100 nM; `CCc1cc(F)ccc1Nc1nc(=O)c(F)cn1Cc1cc(F)c(F)c(F)c1` [Compound I-1208]: below 10 nM. The same measure, in the same setting: next, `COc1cn(Cc2cc(F)cc(F)c2)c(Nc2cc(N3CCCC3=O)ccc2C)nc1=O` [Compound I-0648]: 10 to 100 nM; `Cc1ccc(C)c(Nc2nc(=NC#N)c(F)cn2Cc2cc(F)c(F)c(F)c2)c1` [Compound I-1293]: below 10 nM; `COc1cc(C)c(Nc2nc(=O)c(F)cn2Cc2cc(F)c(F)c(F)c2)cc1Cl` [Compound I-1175]: below 10 nM. In the case of `COCc1cc(=O)nc(Nc2cc(OC)c(OC)cc2C)n1Cc1cc(F)cc(F)c1` [Compound I-1142], the IC50 is 10 to 100 nM.

For the molecule `COc1cn(Cc2ccc(F)c(Cl)c2)c(Nc2cc(-c3ccc(C)o3)ccc2C)nc1=O` [Compound I-0659], the IC50 was in the range of 10 to 100 nM.

For the molecule `Cc1nc2cc(C)c(Nc3nc(=NC#N)c(F)cn3Cc3cc(F)c(F)c(F)c3)cc2s1` [Compound I-1286], the IC50 was below 10 nM. The same measure, in the same setting: in the case of `COc1cn(Cc2cc(F)cc(Cl)c2)c(Nc2cc(N3CCOCC3)ccc2C)nc1=O` [Compound I-0737] it was 10 to 100 nM; in that of `COc1ccc(C)c(Nc2cc(=O)c(OC)cn2Cc2ccccc2)c1` [Compound I-0952], 100 to 500 nM. On the same count and under the same terms, next, `COc1cn(Cc2cc(F)c(F)c(F)c2)c(Nc2ccc(OCF)cc2C)nc1=O` [Compound I-0943]: below 10 nM; `COc1cn(Cc2ccc(F)c(Cl)c2)c(Nc2cc(OC3CC3)ccc2C)nc1=O` [Compound I-0889]: below 10 nM; `COc1ccc(C)c(Nc2nc(=O)c(CO)nn2Cc2cc(F)c(F)c(F)c2)c1` [Compound I-1246]: below 10 nM.

Consider `CCc1cc2c(cc1Nc1nc(=O)c(OC)cn1Cc1ccccc1)OCO2` [Compound I-0687], for which the IC50 is 10 to 100 nM. As for `O=c1nc(Nc2cccc3c2CCN3)n(Cc2cc(F)cc(F)c2)cc1F` [Compound I-1074], the IC50 lay within 10 to 100 nM. Consider `COc1cn(Cc2cc(F)c(F)c(F)c2)c(Nc2cc3c(cc2C)OCCO3)nc1=O` [Compound I-0708], for which the IC50 was below 10 nM. On the same count and under the same terms, next, `COCc1cn(Cc2cc(F)c(F)c(F)c2)c(Nc2ccc(OC(F)F)cc2C)nc1=O` [Compound I-1124]: 10 to 100 nM; `COc1cn(Cc2cccc(F)c2)c(Nc2cc(C)ccc2C)nc1=O` [Compound I-0644]: 10 to 100 nM. The same measure, in the same setting: next, `Cc1cc2[nH]ccc2cc1Nc1nc(=O)c(F)cn1Cc1cc(F)c(F)c(F)c1` [Compound I-1045]: below 10 nM; `COc1cc(Cl)c(Nc2nc(=O)c(F)cn2Cc2cc(F)c(F)c(F)c2)cc1OC` [Compound I-1187]: below 10 nM; `COc1cc(F)c(Nc2nc(=O)cnn2Cc2cc(F)c(F)c(F)c2)cc1OC` [Compound I-1258]: below 10 nM. `Cc1cc(OC(F)F)c(C)cc1Nc1nc(=O)c(F)cn1Cc1ccc(F)c(F)c1` [Compound I-0835]: the IC50 is below 10 nM. The same measure, in the same setting: in the case of `COc1cn(Cc2ccc(F)c(Cl)c2)c(Nc2cc(C)c(OC(F)(F)F)cc2C)nc1=O` [Compound I-0923] it was 10 to 100 nM; in that of `Cc1cc(OC(F)F)c(C)cc1Nc1nc(=O)c(Cl)cn1Cc1cc(F)cc(F)c1` [Compound I-0839], below 10 nM.
